Laboratory results reported in patent US20250041461A1, “[177LU] LUTETIUM-PSMA I&T COMPOSITION AND DOSIMETRY, KIT, METHOD OF MAKING, AND METHOD OF USING THEREOF” (Curium US LLC, priority 2023, published 2025).
Where “and” joins values, the source holds several entries; their conditions need not be identical. Identical values can stand only once.

Assay: Dosimetry sub-study, first 12 patients, cycle 1 (SPECT/CT, TIAC, OLINDA 2.2.3)
Type: in vivo, human
Conditions: for dose estimate, Mean: Eclipse; for Extrapolation of Absorbed Dose to 6 Cycles Assuming 7.4 GBq per cycle: kidneys; for Kidneys Absorbed Dose Assuming 7.4 GBq per cycle: one cycle; for Effective Dose Cycle 1: whole body
Procedure: Twelve subjects were administered a target activity of 7.4 GBq (mean 7.56±0.17 GBq) of [^177Lu]Lu-PSMA-I&T. Following the infusion, subjects underwent single photon emission computed tomography (SPECT)/computed tomography (CT) imaging at four timepoints (4 hours, 24 hours, 48 hours, and 168 hours). Image data was analyzed to compute time integrated activity coefficients (TIAC) in each organ of interest defined a priori in the independent review charter and in organs showing appreciable and meaningful [^177Lu]Lu-PSMA I&T activity. Segmented organs included kidneys, bladder, liver, lacrimal glands, salivary glands, intestine, lumbar vertebrae L2-L4, and whole body. To compute subject-specific organ doses, organ-level TIAC data were entered into Organ Level Internal Dose Assessment (OLINDA 2.2.3) and resulting organ doses for each target organ and whole-body effective dose were collated and averaged.
Patients received SPECT/CT imaging (anatomical coverage included the salivary gland in most of the patients and extended through the pelvis) following the injection of 7.4 (±10%) GBq of [^177Lu]Lu-PSMA-I&T (detailed injected doses are reported in Table 36). All patients completed the first treatment cycle, and the acquisition of images was carried out. To note, for patient 37-016 the 168 hours SPECT/CT timepoint wasn't acquired, whereas patient 12-004 48 hours scan was presenting unrealistically high values, and the 48 hours scan was therefore excluded from further analysis.
The imaging data was analyzed using Invicro's VivoQuant software, a validated software used in a 21 CFR § 11-compliant workflow. The general quantification approach was based on the principles detailed in the Medical Internal Radiation Dose (MIRD) Pamphlet No. 16, No 23, and No 26, as appropriate.
Each SPECT image was co-registered with its corresponding CT. Image calibration was performed to convert the counts measured on the SPECT images to activity (Bq). The same SPECT/CT system was used in each patient for the entirety of the dosimetry study.
Regions of interest (ROI) (kidneys, bladder, liver, lumbar vertebrae L2-L4, lacrimal glands, salivary glands (parotid and submandibular glands), and whole body) were drawn on each dataset by a trained image analyst. […] Lumbar vertebrae L2-L4 was delineated for all patients on the CT images to derive red marrow doses.^4 For kidneys, a ROI was drawn on the SPECT image encompassing all the uptake seen in the kidneys. Similarly for lacrimal glands, all the uptake observed on the SPECT image at the lacrimal glands' location was segmented. [^177Lu]Lu-PSMA-I&T distribution in a patient imaged over time is represented in FIG. 16.
Time-activity curves of the activity in each ROI as a function of time were plotted. These curves were normalized by the known injected activity to arrive at units of fraction of injected activity. Calculations of time-integrated activity coefficient (TIAC, in units of hours) were performed for each region of interest listed above.
Clearance of the tracer was derived from a data-appropriate fit of each organ time activity curve (TAC). Depending on the shape of the TAC, the data was fitted with the sum of one, two or three exponentials or using a rise and fall model. TIACs were calculated through analytical integration of the curve fit extrapolated to infinite. […] The remainder activity was determined by subtracting the cumulative organ TIACs from the whole body TIAC.
Organ TIACs were inputted into Organ Level Internal Dose Assessment, OLINDA 2.2.3 for the computation of organ and whole-body absorbed doses and effective dose (computed using ICRP-103 weighing factors). ICRP-89 derived male phantom was used for dose estimation. Organs and body weights as defined by ICRP-89 were scaled based on height and mass using the patient effective mass. Kidney volumes were measured for each patient on the CT images and used for the kidneys mass of the ICRP-89 phantom assuming a density of 1 g/ml. […]

[1] = individual subjects, listed as [^177Lu]Lu-PSMA-I&T

## O=C([O-])CC[C@H](NC(=O)N[C@@H](CCCCNC(=O)CCCCCCC(=O)NCCCC[C@@H](NC(=O)[C@@H](Cc1ccccc1)NC(=O)[C@@H](Cc1ccc(O)c(I)c1)NC(=O)CC[C@H](C(=O)[O-])N1CCN(CC(=O)[O-])CCN(CC(=O)[O-])CCN(CC(=O)[O-])CC1)C(=O)[O-])C(=O)[O-])C(=O)[O-].[177Lu+3].[H+].[H+].[H+].[H+].[H+] [^177Lu-PSMA I&T, (3S,7S,26R,29R,32R,37R)-29-benzyl-32-(4-hydroxy-3-iodobenzyl)-5,13,20,28,31,34-hexaoxo-37-(4,7,10-tris(carboxymethyl)-1,4,7,10-tetraazacyclododecan-1-yl)-4,6,12,21,27,30,33-heptaazaheptatriacontane-1,3,7,26,37-pentacarboxylic acid; lutetium-177 (III)]
12 patients, cycle 1
  Mean whole body effective dose: 0.095±0.048 mSv/MBq
  Whole-body time integrated activity coefficient, mean: 24.1 ± 18.7 h
  absorbed dose, kidneys: 0.43±0.18 Gy/GBq
  absorbed dose, lacrimal glands: 0.67±0.33 Gy/GBq
  absorbed dose, left colon: 0.54±0.42 Gy/GBq
  absorbed dose, rectum: 0.52±0.40 Gy/GBq
  absorbed dose, red marrow: 0.08±0.15 Gy/GBq
  absorbed dose, right colon: 0.30±0.23 Gy/GBq
  absorbed dose, salivary glands: 0.13±0.08 Gy/GBq
  absorbed dose, urinary bladder wall: 0.38±0.03 Gy/GBq
12 patients, cycle 1, 7.4 GBq
  Whole-body time integrated activity coefficients, mean: 24.1 ± 18.7 h
12 patients, 7.4 GBq per cycle
  estimated absorbed dose for the kidneys after 6 cycles, max: 35.83 Gy
  estimated absorbed dose for the kidneys after 6 cycles, min: 9.9 Gy
12 patients, 7.4 GBq per cycle, listed as [^177Lu]Lu-PSMA-I&T
  estimated mean absorbed dose for the kidneys after 6 cycles: 19.3 Gy and 19.3±8.0 Gy
Adrenals, cycle 1, 12 patients
  Absorbed Dose, Mean: 0.03 Gy/GBq
Brain, cycle 1, 12 patients
  Absorbed Dose, Mean: 0.02 Gy/GBq
Esophagus, cycle 1, 12 patients
  Absorbed Dose, Mean: 0.02 Gy/GBq
Eyes, cycle 1, 12 patients
  Absorbed Dose, Mean: 0.02 Gy/GBq
Gallbladder Wall, cycle 1, 12 patients
  Absorbed Dose, Mean: 0.02 Gy/GBq
Heart Wall
  dose estimate, Mean: 0.02 Gy/GBq
Heart Wall, cycle 1, 12 patients
  Absorbed Dose, Mean: 0.02 Gy/GBq
Kidneys
  dose estimate, Mean: 0.43 Gy/GBq
Kidneys, cycle 1, 12 patients
  Absorbed Dose, Mean: 0.43 Gy/GBq
Lacrimal gland
  dose estimate, Mean: 0.67 Gy/GBq
Lacrimal glands (OLINDA sphere model), cycle 1
  Absorbed Dose, Mean: 0.67 Gy/GBq
Left colon
  dose estimate, Mean: 0.54 Gy/GBq
Left colon, cycle 1, 12 patients
  Absorbed Dose, Mean: 0.54 Gy/GBq
Liver
  dose estimate, Mean: 0.04 Gy/GBq
Liver, cycle 1, 12 patients
  Absorbed Dose, Mean: 0.04 Gy/GBq
Lungs, cycle 1, 12 patients
  Absorbed Dose, Mean: 0.02 Gy/GBq
Osteogenic Cells, cycle 1, 12 patients
  Absorbed Dose, Mean: 0.05 Gy/GBq
Pancreas, cycle 1, 12 patients
  Absorbed Dose, Mean: 0.02 Gy/GBq
Prostate, cycle 1, 12 patients
  Absorbed Dose, Mean: 0.02 Gy/GBq
Rectum
  dose estimate, Mean: 0.52 Gy/GBq
Rectum, cycle 1, 12 patients
  Absorbed Dose, Mean: 0.52 Gy/GBq
Red Marrow
  dose estimate, Mean: 0.08 Gy/GBq
Red Marrow, cycle 1, 12 patients
  Absorbed Dose, Mean: 0.08 Gy/GBq
Right colon
  dose estimate, Mean: 0.30 Gy/GBq
Right colon, cycle 1, 12 patients
  Absorbed Dose, Mean: 0.30 Gy/GBq
Salivary Glands, cycle 1, 12 patients
  Absorbed Dose, Mean: 0.13 Gy/GBq
Salivary glands
  dose estimate, Mean: 0.13 Gy/GBq
Small Intestine, cycle 1, 12 patients
  Absorbed Dose, Mean: 0.06 Gy/GBq
Spleen
  dose estimate, Mean: 0.03 Gy/GBq
Spleen, cycle 1, 12 patients
  Absorbed Dose, Mean: 0.03 Gy/GBq
Stomach Wall, cycle 1, 12 patients
  Absorbed Dose, Mean: 0.02 Gy/GBq
Testes, cycle 1, 12 patients
  Absorbed Dose, Mean: 0.02 Gy/GBq
Thymus, cycle 1, 12 patients
  Absorbed Dose, Mean: 0.02 Gy/GBq
Thyroid
  dose estimate, Mean: 0.02 Gy/GBq
Thyroid, cycle 1, 12 patients
  Absorbed Dose, Mean: 0.02 Gy/GBq
Total Body, cycle 1, 12 patients
  Absorbed Dose, Mean: 0.03 Gy/GBq
Urinary Bladder Wall, cycle 1, 12 patients
  Absorbed Dose, Mean: 0.38 Gy/GBq
Urinary bladder wall
  dose estimate, Mean: 0.38 Gy/GBq
Cycle 1, Mean of 12 subjects
  Whole Body TIAC: 24.1 h
Cycle 1, Mean of 12 subjects (Table 41)
  Kidneys Absorbed Dose: 0.43 Gy/GBq
Cycle 1, individual subjects (Table 41), listed as [^177Lu]Lu-PSMA-I&T
  Kidneys Absorbed Dose: 0.64 Gy/GBq and 0.34 Gy/GBq and 0.81 Gy/GBq and 0.29 Gy/GBq and 0.27 Gy/GBq (2×) and 0.22 Gy/GBq and 0.48 Gy/GBq and 0.32 Gy/GBq and 0.54 Gy/GBq and 0.41 Gy/GBq and 0.57 Gy/GBq
Cycle 1, individual subjects, listed as [^177Lu]Lu-PSMA-I&T
  Whole Body TIAC: 8.2 h and 17.2 h and 41.7 h and 14.4 h and 69.7 h and 43.7 h and 11.1 h and 12.6 h and 19.7 h and 14.2 h and 8.5 h and 27.6 h
Cycle 1, individual subjects, listed as [^177Lu]Lu-PSMA-I&T, absorbed dose per injected activity, Gy/GBq
  Kidneys Absorbed Dose: 0.27 Gy/GBq (2×) and 0.22 Gy/GBq and 0.48 Gy/GBq and 0.32 Gy/GBq and 0.54 Gy/GBq and 0.41 Gy/GBq and 0.57 Gy/GBq and 0.64 Gy/GBq and 0.34 Gy/GBq and 0.81 Gy/GBq and 0.29 Gy/GBq
Cycle 1, individual subjects, listed as [^177Lu]Lu-PSMA-I&T, total absorbed dose, Gy
  Kidneys Absorbed Dose: 2.00 Gy and 2.36 Gy and 3.99 Gy and 3.08 Gy and 4.48 Gy and 2.26 Gy
Mean of 12 subjects
  Extrapolation of Absorbed Dose to 6 Cycles Assuming 7.4 GBq per cycle: 19.3 Gy
  Kidneys Absorbed Dose Assuming 7.4 GBq per cycle: 3.2 Gy
  Effective Dose Cycle 1: 0.09 mSv/MBq
[1]
  Extrapolation of Absorbed Dose to 6 Cycles Assuming 7.4 GBq per cycle: 28.5 Gy and 15.0 Gy and 35.8 Gy and 13.0 Gy and 11.8 Gy and 9.9 Gy and 21.3 Gy and 12.0 Gy and 14.0 Gy and 23.8 Gy and 18.0 Gy and 25.1 Gy
  Kidneys Absorbed Dose Assuming 7.4 GBq per cycle: 4.8 Gy and 2.5 Gy and 6.0 Gy and 2.2 Gy and 2.0 Gy (2×) and 1.7 Gy and 3.6 Gy and 2.3 Gy and 4.0 Gy and 3.0 Gy and 4.2 Gy
  Effective Dose Cycle 1: 0.03 mSv/MBq (2×) and 0.09 mSv/MBq and 0.12 mSv/MBq and 0.11 mSv/MBq (2×) and 0.16 mSv/MBq and 0.19 mSv/MBq and 0.07 mSv/MBq (2×) and 0.06 mSv/MBq and 0.08 mSv/MBq
